# Results from the NIST ThermoML archive (doi:10.1016/j.jct.2017.02.004).
# ± gives the expanded uncertainty stated by the source.
# Experiment: mn = molality of the nth substance listed, in mol/kg
# Conditions: 100 kPa, Liquid; for speed of sound: Frequency=3 MHz, Single path-length method; for mass density: Vibrating tube method
structure (smiles),measurement,setting,value
[Cl-].[Li+] [lithium chloride] + O,speed of sound,"288.15 K, m1 = 0.05",1469.6 ± 1 m/s
same,speed of sound,"288.15 K, m1 = 0.1002",1472.7 ± 1 m/s
same,speed of sound,"288.15 K, m1 = 0.1498",1475.8 ± 1 m/s
same,speed of sound,"288.15 K, m1 = 0.1999",1478.8 ± 1 m/s
same,speed of sound,"288.15 K, m1 = 0.2502",1482 ± 1.1 m/s
same,speed of sound,"288.15 K, m1 = 0.2999",1485 ± 1 m/s
same,speed of sound,"288.15 K, m1 = 0.3503",1488.1 ± 1 m/s
same,speed of sound,"288.15 K, m1 = 0.4",1491.1 ± 1.1 m/s
same,speed of sound,"288.15 K, m1 = 0.4503",1494.2 ± 1.1 m/s
same,speed of sound,"288.15 K, m1 = 0.5",1497.2 ± 1.1 m/s
same,mass density,"288.15 K, m1 = 0.05",1000.33 ± 0.31 kg/m3
same,mass density,"288.15 K, m1 = 0.1002",1001.57 ± 0.31 kg/m3
same,mass density,"288.15 K, m1 = 0.1498",1002.78 ± 0.31 kg/m3
same,mass density,"288.15 K, m1 = 0.1999",1004 ± 0.31 kg/m3
same,mass density,"288.15 K, m1 = 0.2502",1005.22 ± 0.31 kg/m3
same,mass density,"288.15 K, m1 = 0.2999",1006.41 ± 0.31 kg/m3
same,mass density,"288.15 K, m1 = 0.3503",1007.63 ± 0.31 kg/m3
same,mass density,"288.15 K, m1 = 0.4",1008.83 ± 0.31 kg/m3
same,mass density,"288.15 K, m1 = 0.4503",1010.02 ± 0.31 kg/m3
same,mass density,"288.15 K, m1 = 0.5",1011.21 ± 0.31 kg/m3
same,speed of sound,"293.15 K, m1 = 0.05",1485.6 ± 1 m/s
same,speed of sound,"293.15 K, m1 = 0.1002",1488.6 ± 1 m/s
same,speed of sound,"293.15 K, m1 = 0.1498",1491.6 ± 1 m/s
same,speed of sound,"293.15 K, m1 = 0.1999",1494.6 ± 1 m/s
same,speed of sound,"293.15 K, m1 = 0.2502",1497.6 ± 1 m/s
same,speed of sound,"293.15 K, m1 = 0.2999",1500.5 ± 1 m/s
same,speed of sound,"293.15 K, m1 = 0.3503",1503.5 ± 1 m/s
same,speed of sound,"293.15 K, m1 = 0.4",1506.3 ± 1 m/s
same,speed of sound,"293.15 K, m1 = 0.4503",1509.2 ± 1 m/s
same,speed of sound,"293.15 K, m1 = 0.5",1512.1 ± 1 m/s
same,mass density,"293.15 K, m1 = 0.05",999.427 ± 0.31 kg/m3
same,mass density,"293.15 K, m1 = 0.1002",1000.66 ± 0.31 kg/m3
same,mass density,"293.15 K, m1 = 0.1498",1001.87 ± 0.31 kg/m3
same,mass density,"293.15 K, m1 = 0.1999",1003.08 ± 0.31 kg/m3
same,mass density,"293.15 K, m1 = 0.2502",1004.28 ± 0.31 kg/m3
same,mass density,"293.15 K, m1 = 0.2999",1005.47 ± 0.31 kg/m3
same,mass density,"293.15 K, m1 = 0.3503",1006.67 ± 0.31 kg/m3
same,mass density,"293.15 K, m1 = 0.4",1007.86 ± 0.31 kg/m3
same,mass density,"293.15 K, m1 = 0.4503",1009.04 ± 0.31 kg/m3
same,mass density,"293.15 K, m1 = 0.5",1010.21 ± 0.31 kg/m3
same,speed of sound,"298.15 K, m1 = 0.1002",1502.6 ± 1 m/s
same,speed of sound,"298.15 K, m1 = 0.1498",1505.5 ± 1 m/s
same,speed of sound,"298.15 K, m1 = 0.1999",1508.3 ± 1 m/s
same,speed of sound,"298.15 K, m1 = 0.2502",1511.2 ± 1 m/s
same,speed of sound,"298.15 K, m1 = 0.2999",1514.1 ± 1 m/s
same,speed of sound,"298.15 K, m1 = 0.3503",1516.9 ± 1 m/s
same,speed of sound,"298.15 K, m1 = 0.4",1519.6 ± 1 m/s
same,speed of sound,"298.15 K, m1 = 0.4503",1522.4 ± 1 m/s
same,speed of sound,"298.15 K, m1 = 0.5",1525.1 ± 1 m/s
same,mass density,"298.15 K, m1 = 0.05",998.265 ± 0.31 kg/m3
same,mass density,"298.15 K, m1 = 0.1002",999.489 ± 0.31 kg/m3
same,mass density,"298.15 K, m1 = 0.1498",1000.69 ± 0.31 kg/m3
same,mass density,"298.15 K, m1 = 0.1999",1001.89 ± 0.31 kg/m3
same,mass density,"298.15 K, m1 = 0.2502",1003.1 ± 0.31 kg/m3
same,mass density,"298.15 K, m1 = 0.2999",1004.28 ± 0.31 kg/m3
same,mass density,"298.15 K, m1 = 0.3503",1005.47 ± 0.31 kg/m3
same,mass density,"298.15 K, m1 = 0.4",1006.65 ± 0.31 kg/m3
same,mass density,"298.15 K, m1 = 0.4503",1007.83 ± 0.31 kg/m3
same,mass density,"298.15 K, m1 = 0.5",1008.99 ± 0.31 kg/m3
same,speed of sound,"303.15 K, m1 = 0.05",1512 ± 1 m/s
same,speed of sound,"303.15 K, m1 = 0.1002",1514.8 ± 1 m/s
same,speed of sound,"303.15 K, m1 = 0.1498",1517.6 ± 1 m/s
same,speed of sound,"303.15 K, m1 = 0.1999",1520.3 ± 1 m/s
same,speed of sound,"303.15 K, m1 = 0.2999",1525.9 ± 1 m/s
same,speed of sound,"303.15 K, m1 = 0.3503",1528.6 ± 1 m/s
same,speed of sound,"303.15 K, m1 = 0.4",1531.2 ± 1 m/s
same,speed of sound,"303.15 K, m1 = 0.4503",1533.9 ± 1 m/s
same,speed of sound,"303.15 K, m1 = 0.5",1536.6 ± 1 m/s
same,mass density,"303.15 K, m1 = 0.05",996.862 ± 0.31 kg/m3
same,mass density,"303.15 K, m1 = 0.1002",998.083 ± 0.31 kg/m3
same,mass density,"303.15 K, m1 = 0.1498",999.281 ± 0.31 kg/m3
same,mass density,"303.15 K, m1 = 0.1999",1000.48 ± 0.31 kg/m3
same,mass density,"303.15 K, m1 = 0.2502",1001.68 ± 0.31 kg/m3
same,mass density,"303.15 K, m1 = 0.2999",1002.86 ± 0.31 kg/m3
same,mass density,"303.15 K, m1 = 0.3503",1004.05 ± 0.31 kg/m3
same,mass density,"303.15 K, m1 = 0.4",1005.22 ± 0.31 kg/m3
same,mass density,"303.15 K, m1 = 0.4503",1006.4 ± 0.31 kg/m3
same,mass density,"303.15 K, m1 = 0.5",1007.56 ± 0.31 kg/m3
same,speed of sound,"308.15 K, m1 = 0.1002",1525.3 ± 1 m/s
same,speed of sound,"308.15 K, m1 = 0.1999",1530.7 ± 1 m/s
same,speed of sound,"308.15 K, m1 = 0.2999",1536 ± 1 m/s
same,speed of sound,"308.15 K, m1 = 0.3503",1538.7 ± 1 m/s
same,speed of sound,"308.15 K, m1 = 0.4",1541.2 ± 1 m/s
same,speed of sound,"308.15 K, m1 = 0.4503",1543.8 ± 1 m/s
same,speed of sound,"308.15 K, m1 = 0.5",1546.4 ± 1 m/s
same,mass density,"308.15 K, m1 = 0.05",995.242 ± 0.31 kg/m3
same,mass density,"308.15 K, m1 = 0.1498",997.651 ± 0.31 kg/m3
same,mass density,"308.15 K, m1 = 0.1999",998.845 ± 0.31 kg/m3
same,mass density,"308.15 K, m1 = 0.2502",1000.04 ± 0.31 kg/m3
same,mass density,"308.15 K, m1 = 0.2999",1001.21 ± 0.31 kg/m3
same,mass density,"308.15 K, m1 = 0.3503",1002.4 ± 0.31 kg/m3
same,mass density,"308.15 K, m1 = 0.4",1003.57 ± 0.31 kg/m3
same,mass density,"308.15 K, m1 = 0.4503",1004.74 ± 0.31 kg/m3
same,mass density,"308.15 K, m1 = 0.5",1005.9 ± 0.31 kg/m3
